Measurements published in patent US9234025B2, “Extracellular allosteric inhibitor binding domain from a tyrosine kinase receptor” (SANOFI, priority 2009, dated 2016).

Legend:
FGF2 = FGF2 (Homo sapiens, UniProt P09038); assay: ITC or STD-NMR, FGF2; type: binding; parameters: FGF2 (amino acids 9-155); made in house
Protocol: The extracellular domain (ECD; amino acids: 39-358) of the human FGFR1 gene (P11362) was PCR amplified and cloned into E. coli vector pETTEV (with a N-terminal His-tag followed by a TEV protease cleavage site), using NdeI and BamHI restriction sites. For protein production, the resulting plasmid (pET FGFR1 D1D2D3) was transformed into E. coli BL21(DE3) (Novagene). Cells were grown at 37° C. until the OD600 reached 0.6 and recombinant protein production was induced by adding 1 mM IPTG (isopropyl-b-D-thiogalactopyranoside). After 4 hours induction, cells were harvested and stored at −80° C. until usage. The cell pellet (1 L culture) was thawed and resuspended in 50 ml buffer 1 (20 mM Tris/HCl, pH 7.5, 200 mM NaCl) containing lysozyme (2 mg), and 40 U benzonase (Merck). […] Complex formation was analyzed by size exclusion chromatography and subsequent analysis on SDS-PAGE.
All STD- and 1D-NMR experiments were carried out on a BRUKER three-channel DRX600 and on a BRUKER four-channel DRX800 spectrometer at the standard temperature of 298 K and were referenced to the internal standard 3-Trimethyl-2,2,3,3-tetradeuteropropionate-sodium salt (TSP). […] For protein ligand 1D STD NMR measurements spectra were recorded with 1 mM ligand SSR128129E (100 mM DMSO stock solution) and […] protein with weak 2s RF irradiation on separated protein methyl resonances. […]

PANC02 cells = assay: PANC02 proliferation; type: cell-based; conditions: 100 nM SSR; 100 ng/ml FGF7 with or without VEGF; FGFR2-IIIb
Protocol: Cell proliferation was analysed on exponentially growing cells that were starved for 16 hours in 100 μl RPMI 1640 (Invitrogen, 32404-014) with 0.2% FBS (Hyclone, SH30070.03), 2 mM glutamine, MEM non-essential amino-acid 1× (Gibco, 11140-035), MEM sodium pyruvate 1× (Gibco, 11360-039) and seeded at 4,000 cells/well in 96-well microplates. After exposure to mitogens and/or SSR for 72 hours, cell proliferation was assessed with the use of the CellTiter 96 AQueous One Solution Cell Proliferation Assay (Promega, Madison, Wis., USA) according to manufacturer's instructions. Cell migration was assessed by a modified Boyden chamber assay, by using 24-well inserts containing 8 μm pore size transwell permeable supports with a polycarbonate membrane (Costar, Corning Inc.). Exponentially growing cells were starved in 0.2% FBS containing medium for 16 hours and resuspended at 5×10^5 cells/ml in the same low serum medium. 100 μl of the cell suspension were seeded in the upper chamber, while chemoattractants and/or SSR were placed in the lower chamber. 10% FBS containing medium was used a positive control. After 6 hours incubation at 37° C., cells on the upper side of the membrane were scraped using a cotton swab, while migrated cells on the lower surface were fixed with 4% formaldehyde and nuclei stained with DAPI for quantification.

various FGFRs = assay: additional SPA assays, FGF ligands to various FGFRs; type: binding

FGF2, sequence (P09038 142-288): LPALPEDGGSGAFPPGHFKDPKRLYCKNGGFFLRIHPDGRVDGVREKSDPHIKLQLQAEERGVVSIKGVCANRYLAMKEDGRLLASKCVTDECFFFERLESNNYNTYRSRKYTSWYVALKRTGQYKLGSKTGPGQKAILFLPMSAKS

## COc1c(C)c(C(=O)c2ccc(N)c(C(=O)[O-])c2)n2ccccc12.[Na+] [SSR]
FGF2
  binding to FGF2: failed to bind
PANC02 cells
  FGF7-induced PANC02 proliferation: blocked
Various FGFRs
  binding of different FGF ligands to various FGFRs: blocking the binding of different FGF ligands to various FGFRs
